What all share (type): in vivo
One series deals with Digitaria ciliaris. Briefly: Test Examples 2 and 5, Comparative Example 1: foliar spray herbicide efficacy. The note with it: second to third leaf stages, sprayed, 63 g/ha; for Herbicide efficacy against digitaria ciliaris: greenhouse 16 days. On the procedure: Here “untreated group” represents a group where a similar treatment procedure to that of the treated group except not using the test compound is done. One point one nine (1.19) mg of the present compound was dissolved 1 mL of a DMF solution containing 2% polyoxyethylene sorbitan monolaurate, and then 18 mL of water was added thereto. The mixture was sprayed uniformly to Digitaria ciliaris in the second to third leaf stages so that the applied dose was made 63 g/ha. Thereafter, the plants were cultivated in a greenhouse for 7 days, and the herbicide efficacy was assessed. […] One point one nine (1.19) mg of the present compound was dissolved 1 mL of a DMF solution containing 2% polyoxyethylene sorbitan monolaurate, and then 18 mL of water was added thereto. The mixture was sprayed uniformly to Digitaria ciliaris in the second to third leaf stages so that the applied dose was made 63 g/ha. Thereafter, the plants were cultivated in a greenhouse for 16 days, and the herbicide efficacy was assessed. The test was conducted similarly to the method described in Test Example 5 except for using a compound represented by the following formula (A): […]

The subject of the next series is soybean. Description: Test Examples 4 and 5, Comparative Example 1: foliar spray phytotoxicity against useful plants. Particulars: second to third leaf stages, sprayed, 63 g/ha; for Phytotoxicity against Soybean: greenhouse 16 days. On the procedure:
Here “untreated group” represents a group where a similar treatment procedure to that of the treated group except not using the test compound is done. One point one nine (1.19) mg of the present compound was dissolved 1 mL of a DMF solution containing 2% polyoxyethylene sorbitan monolaurate, and then 18 mL of water was added thereto. The mixture was sprayed uniformly to soybean in the second to third leaf stages so that the applied dose was made 63 g/ha. Thereafter, the plants were cultivated in a greenhouse for 7 days, and the phytotoxicity against useful plants was assessed. […] Also, 1.19 mg of the present compound was dissolved 1 mL of a DMF solution containing 2% polyoxyethylene sorbitan monolaurate, and then 18 mL of water was added thereto. The mixture was sprayed uniformly to soybean in the second to third leaf stages so that the applied dose was made 63 g/ha. Thereafter, the plants were cultivated in a greenhouse for 16 days, and the phytotoxicity against useful plants was assessed. The test was conducted similarly to the method described in Test Example 5 except for using a compound represented by the following formula (A): […]

In another series the test system is Echinochloa crus-galli. Briefly: Test Example 1: foliar spray herbicide efficacy. The note with it: second to third leaf stages, sprayed, 63 g/ha, greenhouse for days (number not given). On the procedure:
Here “untreated group” represents a group where a similar treatment procedure to that of the treated group except not using the test compound is done. One point one nine (1.19) mg of the present compound was dissolved 1 mL of a DMF solution containing 2% polyoxyethylene sorbitan monolaurate, and then 18 mL of water was added thereto. The mixture was sprayed uniformly to Echinochloa crus-galli in the second to third leaf stages so that the applied dose was made 63 g/ha. Thereafter, the plants were cultivated in a greenhouse for days, and the herbicide efficacy was assessed.

Another series has as its system Leptochloa chinensis. Description: Test Example 3: pot spray followed by flooding, herbicide efficacy. Particulars: first leaf stage, pot sprayed, 250 g/ha, flooded to 3 cm next day, greenhouse 20 days. On the procedure: Here “untreated group” represents a group where a similar treatment procedure to that of the treated group except not using the test compound is done. Leptochloa chinensis seeds were seeded into a pot having a diameter of 9 cm and a death of 10 cm that was filled with steam-sterilized soil, and the plants were cultivated in a greenhouse until an emergence of the first leaf stage. Next, 4.75 mg of the present compound was dissolved into a 1 mL of DMF solution containing 2% polyoxyethylene sorbitan monolaurate, and then 18 mL of water was added thereto. The mixture was sprayed uniformly to the pot so that the applied dose was made 250 g/ha. After the pot was flooded to a depth of 3 cm on next day, the plants were cultivated in a greenhouse for 20 days, and the herbicide efficacy was assessed.

On to `Cn1c(C(F)(F)F)cc(=O)n(-c2cc(Oc3cccnc3OCC(=O)Oc3ccccc3)c(Cl)cc2F)c1=O` [Compound (A), reference compound], for which, in the series on Digitaria ciliaris, the “Herbicide efficacy against digitaria ciliaris” value is on record as 10 (100% of herbicide efficacy). In addition, the “Phytotoxicity against Soybean” value in the series on soybean is on record as 10 (100% of phytotoxicity).

In the case of `CCOC(=O)COc1ncccc1Oc1cc(NC(=O)COc2ncccc2Oc2cc(-n3c(=O)cc(C(F)(F)F)n(C)c3=O)c(F)cc2Cl)c(F)cc1Cl` [Present compound], the “score as herbicide efficacy” value with Echinochloa crus-galli was 9 (90% to 99% of herbicide efficacy); in the series on Digitaria ciliaris (Digitaria ciliaris, greenhouse 7 days), 9 (90% to 99% of herbicide efficacy); with Leptochloa chinensis, 10 (100% of herbicide efficacy). The “Herbicide efficacy against digitaria ciliaris” value with Digitaria ciliaris was 10 (100% of herbicide efficacy). For the same compound, the “Phytotoxicity against Soybean” value in the series on soybean is 1 (10% to 19% of phytotoxicity). Moreover, the score as phytotoxicity in the series with soybean (soybean, greenhouse 7 days) is 2 (20% to 29% of phytotoxicity).

The values are drawn from patent publication US10966427B2, “3-pyridyl oxyanilide compound and use therefor” (SUMITOMO CHEMICAL COMPANY, LIMITED, priority 2017, dated 2021).
